Experimental data reported in patent US9949489B2, “Methods for control of hemipteran insect stylet sheath structure formation” (The United States of America, as Represented by the …, priority 2015, dated 2018).

Tests used:
D. citri [1] = experiment: Liquid ACP diet sandwich feeding assay (MFC): inhibition of de novo stylet sheath formation; type: in vivo, Diaphorina citri; parameters: key: −: No effect apparent inhibition of stylet sheath; +/−: inconclusive inhibition; +: apparent slight inhibition effect; ++: increased apparent inhibition effect; +++: high inhibition effect; ++++: very high inhibition effect; +++++: complete inhibition of sheath synthesis; conditions: small molecule in liquid ACP diet, about 24 h, concentration, pH, 25° C. per Table 3
Description: (§1) The next step was to determine if addition of cellulase to the diet of D. citri would interfere with stylet sheath formation. A D. citri diet is prepared as described by Hall, David et al., “Research toward an artificial diet for adult Asian citrus psyllid,” Annals of the Entomological Society of America 103.4:611-617 (2010). Approximately 25 D. citri were collected into polystyrene Cellstar 35 mm×10 mm dishes (Griener Bio-One, Monroe, N.C.) that were then sealed using a single layer of Parafilm® M (Pechiney Plastic Packaging Company, Chicago, Ill.). Approximately 99 μl of liquid ACP diet (e.g., diet lacking the solidifying agar component, see Hall, et. al., 2010, supra) was mixed with approximately 1 μl of cellulase (Sigma Aldrich, St. Louis, Mo.) and mixed. […] layer Parafilm® M surface, which was then covered with another layer of Parafilm® M to form a sandwich (e.g., Parafilm® M—liquid ACP diet with cellulase—Parafilm® M) to allow ACP to feed into the liquid ACP diet containing cellulase. This MFC was then incubated at about 25° C., at about 75% relative humidity, with a light:dark cycle of approximately 14:10 hours for a period of about 24 hours. After about 24 hours, the stylet sheaths were observed using an inverted microscope. FIGS. 3G through 3I are images of three separate locations where D. citri made attempts to feed into the liquid ACP diet containing approximately 1 unit/μl cellulase.
(§2) Because many biomolecule polymerizing enzymes require divalent cations as cofactors, the effect of ethylenediaminetetraacetic acid (EDTA), a chelator of divalent cations, on ACP SS formation was tested by adding EDTA to the previously described liquid ACP diet (see Hall et al., 2010, supra). The EDTA was added to the liquid ACP diet at a concentration of approximately 2 mM EDTA in diH2O. Approximately 200 D. citri were placed in plastic Petri dishes. The dishes were covered with a single layer of Parafilm® M to form MFC. […] The MFC plates were incubated at a temperature of about 25° C., a relative humidity of about 75%, and a light/dark cycle of about 14:10 hours duration. Following the 24-hour incubation, the fluid (either liquid ACP diet containing EDTA or just the liquid ACP diet) between the two sheets of plastic was harvested by using a sterile 5 ml syringe and 20-gauge needle which was pushed into the center of the Parafilm® M-fluid-Parafilm® M sandwich, and the fluid was then removed by syringe plunger suction. The harvested fluids were put into sterile 50 ml conical vials, placed at about −80° C. until frozen. Each vial of harvested fluid was then lypholyzed overnight. The lyophilized product was then solubilized in […], placed at about −80° C. until frozen, then each new vial was lyopholyzed overnight. The lyophilized product was then solubilized in approximately 15 μL of approximately 1× Laemmili buffer (Bio-Rad, Hercules, Calif.) containing approximately 5% 2-mercaptoethanol. The sample was loaded onto a sodium dodecyl sulfate polyacrylamide gel (SDS-PAGE) and underwent electrophoresis. The SDS PAGE gel was then stained with coomassie. Uncommon bands between the liquid ACP diet containing EDTA and liquid ACP diet without EDTA (negative control) lanes were cut out and analyzed by Orbitrap (Thermo Scientific, Waltham, Mass.) protein analysis, according to manufacturer's protocol.
(§3) After about 24-hour incubation, D. citri feeding sites were observed. […] See also Table 2 and Table 3, infra.

D. citri [2] = experiment: as above; type: in vivo, Diaphorina citri; conditions: for Effect on D. citri stylet sheath formation in liquid ACP diet: about 24 h, cellulase approx 1 unit/μl, BAPN 100 mM, EDTA approx 2 mM, proteases per Table 5; for Effect (on ACP stylet sheath formation): D. citri, GRAS small molecule in 175 μL liquid ACP diet at the mM concentration of Table 8, about 24 h
Description: as §1, §2, §3

[3] = system: Bemisia tabaci biotype B whitefly; experiment: Liquid ACP diet sandwich feeding assay: stylet sheath formation by whitefly; type: in vivo; parameters: key to Inhibition of Sheath Formation: −: No effect apparent inhibition of stylet sheath; +/−: inconclusive inhibition; +: apparent slight inhibition effect; ++: increased apparent inhibition effect; +++: high inhibition effect; ++++: very high inhibition effect; +++++: complete inhibition of sheath synthesis
Description: The effects of a protease (bromelain and ficin) contained within the previously described artificial diet (liquid ACP diet) were tested on the Bemisia tabaci biotype B whitefly (a Aleyrodidae, an SSFHI) using approximately 100 live B. tabaci. Approximately 100 live B. tabaci were placed into polystyrene Cellstar 35 mm×10 mm dishes (Griener Bio-One, Monroe, N.C.) using the liquid ACP diet “sandwich” described in Example 2, using approximately 200 μL liquid ACP diet with or without a protease using the conditions described in Table 6 below. The MFCs were incubated at a temperature of about 25° C., a relative humidity of about 75%, and a light:dark cycle of approximately 14:10 hours. MFCs were maintained within clear Pyrex® baking dishes with the membrane (liquid ACP diet “sandwich”) side up, and the baking dish covered in a single layer of clear plastic wrap to prevent external contaminant interactions with the membrane surface during incubation. After about 24 hours incubation, the B. tabaci feeding sites were observed using an inverted microscope to see the effects of proteases in diet on the stylet sheaths for B. tabaci.
After performing the experiments using liquid ACP diet containing either bromelain or ficin experiment on B. tabaci, a similar experiment is performed substituting BAPN for the enzyme. […]

SMILES	Inhibition of Sheath Formation (D. citri [1])	Effect (on ACP stylet sheath formation) (D. citri [2])	further results
O[C@H](CS)[C@H](O)CS (racemic) [Dithiothreitol Solution (DTT), Dithiothreitol]	‘+++++’ (D. citri)	–	–
N#CCCN.O=C(O)/C=C/C(=O)O [3-aminopropionitrile fumarate salt]	‘+++++’ (D. citri)	–	Effect on D. citri stylet sheath formation in liquid ACP diet (D. citri [2]): prohibited the solidification of the ACP SS; Inhibition of Sheath Formation ([3]; WF (Bemisia tabaci, B biotype), BAPN 50 mM in diet): ‘+++++’ (WF); Effect on B. tabaci stylet sheath formation in liquid ACP diet ([3]; about 24 hours, bromelain or ficin 10 units in 250 μl of diet, BAPN 50 mM): prevents stylet sheath formation
OCc1ccc(O)cc1 [4-hydroxybenzyl alcohol]	‘−’ (D. citri)	–	–
O=c1ccc2ccc(O)cc2o1 [7-HO-Coumarin, 7-hydroxy-coumarin]	–	Malformed sheaths	–
[NH4+].[NH4+].[SH-].[SH-].[S]=[Mo]=[S] [Ammonium Tetrathiomolybdate]	‘+++++’ (D. citri)	–	Effect on D. citri stylet sheath formation in liquid ACP diet (D. citri [2]): potent inhibitor of D. citri sheath formation
COc1ccc([C@@H]2CC(=O)c3c(O)cc(O[C@@H]4O[C@H](CO[C@@H]5O[C@@H](C)[C@H](O)[C@@H](O)[C@H]5O)[C@@H](O)[C@H](O)[C@H]4O)cc3O2)cc1 [Didymin]	–	Malformed sheaths	–
C[C@@H]1O[C@@H](OC[C@H]2O[C@@H](Oc3cc(O)c4c(c3)O[C@H](c3ccc(O)c(O)c3)CC4=O)[C@H](O)[C@@H](O)[C@@H]2O)[C@H](O)[C@H](O)[C@H]1O [Eriocitrin]	–	Malformed sheaths	Effect (on ACP stylet sheath formation) (D. citri [2]; listed as eriocitrin): malformation of sheaths
O=C1C[C@@H](c2ccc(O)c(O)c2)Oc2cc(O)cc(O)c21 [Eriodictyol]	–	Malformed sheaths	–
O=C(O)CN(CCN(CC(=O)O)CC(=O)O)CC(=O)O [Ethylenediaminetetraacetic acid (EDTA), Ethylenediaminetetraacetic acid]	‘+++++’ (D. citri)	–	Effect on D. citri stylet sheath formation in liquid ACP diet (D. citri [2]): can inhibit sheath formation
COc1ccc([C@@H]2CC(=O)c3c(O)cc(O)cc3O2)cc1O [Hesperetin]	–	Malformed sheaths	–
COc1ccc([C@@H]2CC(=O)c3c(O)cc(O[C@@H]4O[C@H](CO[C@@H]5O[C@@H](C)[C@H](O)[C@@H](O)[C@H]5O)[C@@H](O)[C@H](O)[C@H]4O)cc3O2)cc1O [Hesperidin]	–	No Effect	–
O=c1cc(CO)occ1O [Kojic Acid]	‘++’ (D. citri)	–	–
CC1(C)O[C@H]2CC(=O)OC[C@]23[C@H]2CC[C@@](C)([C@@H](O[C@@H]4O[C@H](CO)[C@@H](O)[C@H](O)[C@H]4O)c4ccoc4)[C@@]4(O[C@@H]4C(=O)O)[C@]2(C)C(=O)C[C@@H]13 [Limonin glucoside]	–	Malformed sheaths	–
CC1(C)O[C@H]2CC(=O)OC[C@]23[C@H]2CC[C@@]4(C)[C@H](c5ccoc5)OC(=O)[C@H]5O[C@]54[C@]2(C)C(=O)C[C@@H]13 [Limonin]	–	Malformed sheaths	–
O=C1C[C@@H](c2ccc(O)cc2)Oc2cc(O)cc(O)c21 [Naringenin]	–	Malformed sheaths	–
C[C@@H]1O[C@@H](O[C@H]2[C@H](Oc3cc(O)c4c(c3)O[C@H](c3ccc(O)cc3)CC4=O)O[C@H](CO)[C@@H](O)[C@@H]2O)[C@H](O)[C@H](O)[C@H]1O [Naringin]	–	Malformed sheaths	–
O=C([O-])CN(CC(=O)[O-])CC(=O)[O-].[Na+].[Na+].[Na+] [Nitrilotriacetic acid trisodium salt]	‘+++++’ (D. citri)	–	–
CC(=O)O[C@H]1CC(=O)OC(C)(C)[C@@H]2CC(=O)[C@]3(C)[C@H](CC[C@@]4(C)[C@H](c5ccoc5)OC(=O)[C@H]5O[C@]543)[C@@]12C [Nomilin]	–	–	Effect (on ACP stylet sheath formation) (D. citri [2]; listed as nomilin): inhibition of flange solidification
